In article PMC5218480 (PLoS ONE, 2017):

Tested on: MV-4-11 cells
Assay: Gene expression microarray analysis (Affymetrix PrimeView) and GSEA
Assay type: cell-based, human
Set-up: RFU PODN (11730768_x_at) / Fold change /veh PODN (11730768_x_at) / RFU LINC00158 (11744669_a_at) / Fold change /veh LINC00158 (11744669_a_at) / RFU DUSP10 (11751237_a_at) / Fold change /veh DUSP10 (11751237_a_at) / RFU ID3 (11757404_x_at) / Fold change /veh ID3 (11757404_x_at) / RFU PLEKHG5 (11737974_s_at) / Fold change /veh PLEKHG5 (11737974_s_at) / RFU LRRC4B (11730491_at) / Fold change /veh LRRC4B (11730491_at) / RFU GIMAP4 (11747438_a_at) / Fold change /veh GIMAP4 (11747438_a_at) / RFU KRT8 (11758183_x_at) / Fold change /veh KRT8 (11758183_x_at) / RFU CNN1 (11734310_a_at) / Fold change /veh CNN1 (11734310_a_at) / RFU VPS37D (11726825_at) / Fold change /veh VPS37D (11726825_at) / RFU C10orf10 (11716522_x_at) / Fold change /veh C10orf10 (11716522_x_at) / RFU KIR2DL2 /// KIR2DL4 /// KIR2DL5A /// KIR2DL5B /// KIR2DS1 /// KIR2DS2 /// KIR2DS3 /// KIR2DS4 /// KIR3DL3 /// KIR3DL3 /// KIR3DS1 (11738374_at) / Fold change /veh KIR2DL2 /// KIR2DL4 /// KIR2DL5A /// KIR2DL5B /// KIR2DS1 /// KIR2DS2 /// KIR2DS3 /// KIR2DS4 /// KIR3DL3 /// KIR3DL3 /// KIR3DS1 (11738374_at) / RFU C1QL1 (11718748_at) / Fold change /veh C1QL1 (11718748_at) / RFU TMPRSS4 (11747572_a_at) / Fold change /veh TMPRSS4 (11747572_a_at) / RFU HAMP (11756126_x_at) / Fold change /veh HAMP (11756126_x_at) / RFU RNFT2 (11725882_a_at) / Fold change /veh RNFT2 (11725882_a_at) / RFU NR4A2 (11747474_a_at) / Fold change /veh NR4A2 (11747474_a_at) / RFU ABCC12 (11746883_a_at) / Fold change /veh ABCC12 (11746883_a_at) / RFU TMEM136 (11760407_x_at) / Fold change /veh TMEM136 (11760407_x_at) / RFU CLDN22 /// WWC2 (11732394_at) / Fold change /veh CLDN22 /// WWC2 (11732394_at) / RFU HLA-DPB1 (11760878_x_at) / Fold change /veh HLA-DPB1 (11760878_x_at) / RFU SPINT1 (11716480_a_at) / Fold change /veh SPINT1 (11716480_a_at) / RFU GAP43 (11754022_s_at) / Fold change /veh GAP43 (11754022_s_at) / RFU A4GNT (11735810_at) / Fold change /veh A4GNT (11735810_at) / RFU PRB3 (11715151_x_at) / Fold change /veh PRB3 (11715151_x_at) / RFU TUBB4B (11761932_at) / Fold change /veh TUBB4B (11761932_at) / RFU CAPN14 (11732068_a_at) / Fold change /veh CAPN14 (11732068_a_at) / RFU TMCC2 (11721928_a_at) / Fold change /veh TMCC2 (11721928_a_at) / RFU IRGQ (11745062_a_at) / Fold change /veh IRGQ (11745062_a_at) / RFU FAM174B (11720279_a_at) / Fold change /veh FAM174B (11720279_a_at) / RFU TMPRSS4 (11748680_a_at) / Fold change /veh TMPRSS4 (11748680_a_at) / RFU FAM212B (11763350_a_at) / Fold change /veh FAM212B (11763350_a_at) / RFU PLEKHG5 (11743358_a_at) / Fold change /veh PLEKHG5 (11743358_a_at) / RFU ZSCAN30 (11745921_a_at) / Fold change /veh ZSCAN30 (11745921_a_at) / RFU CMKLR1 (11741424_a_at) / Fold change /veh CMKLR1 (11741424_a_at) / RFU LOC101060620 /// MAPK8IP1 (11723275_at) / Fold change /veh LOC101060620 /// MAPK8IP1 (11723275_at) / RFU SPTSSB (11747773_x_at) / Fold change /veh SPTSSB (11747773_x_at) / RFU PRSS12 (11739890_at) / Fold change /veh PRSS12 (11739890_at) / RFU BIN1 (11741810_x_at) / Fold change /veh BIN1 (11741810_x_at) / RFU WNT11 (11732464_a_at) / Fold change /veh WNT11 (11732464_a_at) / RFU C10orf10 (11716521_a_at) / Fold change /veh C10orf10 (11716521_a_at) / RFU C5orf56 (11738089_at) / Fold change /veh C5orf56 (11738089_at) / RFU CYB561 (11721691_x_at) / Fold change /veh CYB561 (11721691_x_at) / RFU ANKRD19P (11752326_a_at) / Fold change /veh ANKRD19P (11752326_a_at) / RFU OR2T12 /// OR2T33 /// OR2T8 (11738714_s_at) / Fold change /veh OR2T12 /// OR2T33 /// OR2T8 (11738714_s_at) / RFU VCAN (11748164_a_at) / Fold change /veh VCAN (11748164_a_at) / RFU JSRP1 (11732532_at) / Fold change /veh JSRP1 (11732532_at) / RFU KRTAP10-11 (11738290_x_at) / Fold change /veh KRTAP10-11 (11738290_x_at) / RFU MYO3A (11730013_a_at) / Fold change /veh MYO3A (11730013_a_at) / RFU EBF3 (11725865_a_at) / Fold change /veh EBF3 (11725865_a_at) / RFU CAMK2N1 (11719241_x_at) / Fold change /veh CAMK2N1 (11719241_x_at) / RFU C5orf56 (11738088_a_at) / Fold change /veh C5orf56 (11738088_a_at) / RFU OLFML3 (11715873_a_at) / Fold change /veh OLFML3 (11715873_a_at) / RFU LOC100653217 /// NTM (11731650_a_at) / Fold change /veh LOC100653217 /// NTM (11731650_a_at) / RFU MAPK11 (11762145_a_at) / Fold change /veh MAPK11 (11762145_a_at) / RFU FIZ1 (11724087_x_at) / Fold change /veh FIZ1 (11724087_x_at) / RFU OASL (11726364_x_at) / Fold change /veh OASL (11726364_x_at) / RFU SOX15 (11748057_x_at) / Fold change /veh SOX15 (11748057_x_at) / RFU CD79A (11719716_a_at) / Fold change /veh CD79A (11719716_a_at) / RFU HIST1H1D (11736915_at) / Fold change /veh HIST1H1D (11736915_at) / RFU CASKIN2 (11723855_a_at) / Fold change /veh CASKIN2 (11723855_a_at) / RFU LOC730098 (11760151_x_at) / Fold change /veh LOC730098 (11760151_x_at) / RFU OR4N2 (11742367_at) / Fold change /veh OR4N2 (11742367_at) / RFU PRRT2 (11749266_a_at) / Fold change /veh PRRT2 (11749266_a_at) / RFU SNX32 (11753110_a_at) / Fold change /veh SNX32 (11753110_a_at) / RFU CDHR5 (11726645_a_at) / Fold change /veh CDHR5 (11726645_a_at) / RFU RCAN1 (11760418_a_at) / Fold change /veh RCAN1 (11760418_a_at) / RFU FAM167A (11723789_a_at) / Fold change /veh FAM167A (11723789_a_at) / RFU FAM26E (11764081_at) / Fold change /veh FAM26E (11764081_at) / RFU ISYNA1 (11749810_s_at) / Fold change /veh ISYNA1 (11749810_s_at) / RFU ACY1 (11761880_at) / Fold change /veh ACY1 (11761880_at) / RFU 11764098_at / Fold change /veh 11764098_at / RFU SAMD14 (11745864_x_at) / Fold change /veh SAMD14 (11745864_x_at) / RFU NPB (11741838_a_at) / Fold change /veh NPB (11741838_a_at) / RFU TMPRSS6 (11731388_a_at) / Fold change /veh TMPRSS6 (11731388_a_at) / RFU KRTAP10-2 (11738614_at) / Fold change /veh KRTAP10-2 (11738614_at) / RFU ARHGAP8 /// PRR5-ARHGAP8 (11727945_x_at) / Fold change /veh ARHGAP8 /// PRR5-ARHGAP8 (11727945_x_at) / RFU KRTAP5-7 /// NADSYN1 (11734609_at) / Fold change /veh KRTAP5-7 /// NADSYN1 (11734609_at) / RFU RASL12 (11751679_a_at) / Fold change /veh RASL12 (11751679_a_at) / RFU CDKN2B (11736163_a_at) / Fold change /veh CDKN2B (11736163_a_at) / RFU PRF1 (11729649_at) / Fold change /veh PRF1 (11729649_at) / RFU, ZNF638 /// ZNF638-IT1 / Fold change vs veh, ZNF638 /// ZNF638-IT1 / RFU, PANK3 / Fold change vs veh, PANK3 / RFU, SH3YL1 / Fold change vs veh, SH3YL1 / RFU, ZEB2 / Fold change vs veh, ZEB2 / RFU, NRIP1 / Fold change vs veh, NRIP1 / RFU, PTTG1IP / Fold change vs veh, PTTG1IP / RFU, CAPN2 / Fold change vs veh, CAPN2 / RFU, MED14 / Fold change vs veh, MED14 / RFU, SNORA58 / Fold change vs veh, SNORA58 / RFU, C1orf63 / Fold change vs veh, C1orf63 / RFU, LRRFIP1 / Fold change vs veh, LRRFIP1 / RFU, NDUFAF7 / Fold change vs veh, NDUFAF7 / RFU, SLC12A2 / Fold change vs veh, SLC12A2 / RFU, IBTK / Fold change vs veh, IBTK / RFU, ESF1 / Fold change vs veh, ESF1 / Fold change vs veh, TMEM50B / RFU, TAOK1 / Fold change vs veh, TAOK1 / RFU, ACBD3 / Fold change vs veh, ACBD3 / RFU, TMA16 / Fold change vs veh, TMA16 / RFU, RWDD3 / Fold change vs veh, RWDD3 / RFU, BCAT1 / Fold change vs veh, BCAT1 / RFU, EDEM3 / Fold change vs veh, EDEM3 / RFU, TMEM33 / Fold change vs veh, TMEM33 / RFU, WDR75 / Fold change vs veh, WDR75 / RFU, AHCTF1 / Fold change vs veh, AHCTF1 / RFU, TFRC / Fold change vs veh, TFRC / RFU, ZDHHC17 / Fold change vs veh, ZDHHC17 / RFU, NOM1 / Fold change vs veh, NOM1 / RFU, ARL8B / Fold change vs veh, ARL8B / RFU, ZBTB11 / Fold change vs veh, ZBTB11 / RFU, TAMM41 / Fold change vs veh, TAMM41 / RFU, KIAA1704 /// LOC100996395 / Fold change vs veh, KIAA1704 /// LOC100996395 / RFU, ING1 / Fold change vs veh, ING1 / RFU, TRMT61B / Fold change vs veh, TRMT61B / RFU, FUBP3 / Fold change vs veh, FUBP3 / RFU, TP53 / Fold change vs veh, TP53 / RFU, TNKS2 / Fold change vs veh, TNKS2 / RFU, ZFP14 / Fold change vs veh, ZFP14 / RFU, ACTR2 / Fold change vs veh, ACTR2 / RFU, PPP3R1 / Fold change vs veh, PPP3R1 / RFU, PIK3R1 / Fold change vs veh, PIK3R1 / RFU, HNRNPA1 / Fold change vs veh, HNRNPA1 / RFU, RNF170 / Fold change vs veh, RNF170 / RFU, ZNF28 / Fold change vs veh, ZNF28 / RFU, RNGTT / Fold change vs veh, RNGTT / RFU, OGT / Fold change vs veh, OGT / RFU, BRD1 / Fold change vs veh, BRD1 / RFU, MARS / Fold change vs veh, MARS / RFU, ZNF655 / Fold change vs veh, ZNF655 / RFU, FAHD1 / Fold change vs veh, FAHD1 / RFU, BDP1 / Fold change vs veh, BDP1 / RFU, LRRCC1 / Fold change vs veh, LRRCC1 / RFU, ARID1A / Fold change vs veh, ARID1A / RFU, ZNF146 / Fold change vs veh, ZNF146 / RFU, ZNF330 / Fold change vs veh, ZNF330 / RFU, GPN3 / Fold change vs veh, GPN3 / RFU, C9orf123 / Fold change vs veh, C9orf123 / RFU, N4BP2L2 / Fold change vs veh, N4BP2L2 / RFU, ARFIP1 / Fold change vs veh, ARFIP1 / RFU, FAM179B / Fold change vs veh, FAM179B / RFU, BCL10 / Fold change vs veh, BCL10 / RFU, UHRF1BP1L / Fold change vs veh, UHRF1BP1L / RFU, BET1 / Fold change vs veh, BET1 / RFU, CNOT2 / Fold change vs veh, CNOT2 / RFU, ZNF268 / Fold change vs veh, ZNF268 / Fold change vs veh, ZNF507 / RFU, DGCR2 / Fold change vs veh, DGCR2 / RFU, WDSUB1 / Fold change vs veh, WDSUB1 / Fold change vs veh, HSP90B1 /// MIR3652 / RFU, ADSS / Fold change vs veh, ADSS / RFU, GK / Fold change vs veh, GK / RFU, ZNF148 / Fold change vs veh, ZNF148 / RFU, TAF9 / Fold change vs veh, TAF9 / RFU, SLC1A5 / Fold change vs veh, SLC1A5 / RFU, SLMO2 / Fold change vs veh, SLMO2 / RFU, ABCC4 / Fold change vs veh, ABCC4 / RFU, LOC101060439 /// RAP1B / Fold change vs veh, LOC101060439 /// RAP1B / RFU, RFX7 / Fold change vs veh, RFX7 / RFU, GTPBP10 / Fold change vs veh, GTPBP10 / RFU, CNEP1R1 / Fold change vs veh, CNEP1R1 / RFU, BIVM-ERCC5 /// ERCC5 / Fold change vs veh, BIVM-ERCC5 /// ERCC5 / RFU, ILF3 / Fold change vs veh, ILF3 / RFU 11762660_at / Fold change /veh 11762660_at / RFU VCAN (11757783_s_at) / Fold change /veh VCAN (11757783_s_at) / RFU DDX43 (11728927_at) / Fold change /veh DDX43 (11728927_at) / RFU KRT8 (11758188_x_at) / Fold change /veh KRT8 (11758188_x_at) / RFU NKD1 (11759106_at) / Fold change /veh NKD1 (11759106_at) / RFU SRD5A1 (11742802_a_at) / Fold change /veh SRD5A1 (11742802_a_at) / RFU TPSAB1 /// TPSB2 (11721975_s_at) / Fold change /veh TPSAB1 /// TPSB2 (11721975_s_at) / RFU GSTM3 (11746129_a_at) / Fold change /veh GSTM3 (11746129_a_at) / RFU IL23R (11737362_x_at) / Fold change /veh IL23R (11737362_x_at) / RFU TMEM51 (11727254_a_at) / Fold change /veh TMEM51 (11727254_a_at) / RFU PIWIL2 (11732686_x_at) / Fold change /veh PIWIL2 (11732686_x_at) / RFU ORM1 (11744905_x_at) / Fold change /veh ORM1 (11744905_x_at) / RFU CCDC152 (11743942_at) / Fold change /veh CCDC152 (11743942_at) / RFU ECM1 (11717891_a_at) / Fold change /veh ECM1 (11717891_a_at) / RFU IL23R (11748794_a_at) / Fold change /veh IL23R (11748794_a_at) / RFU TNFAIP8L3 (11732012_x_at) / Fold change /veh TNFAIP8L3 (11732012_x_at) / RFU MBOAT4 (11741988_at) / Fold change /veh MBOAT4 (11741988_at) / RFU 11764193_at / Fold change /veh 11764193_at / RFU TMEM53 (11763286_at) / Fold change /veh TMEM53 (11763286_at) / RFU MAGEB2 (11727129_at) / Fold change /veh MAGEB2 (11727129_at) / RFU TMEM200A (11744735_a_at) / Fold change /veh TMEM200A (11744735_a_at) / RFU CCDC152 (11751479_a_at) / Fold change /veh CCDC152 (11751479_a_at) / RFU FAM211A (11726209_a_at) / Fold change /veh FAM211A (11726209_a_at) / RFU RGS16 (11746705_a_at) / Fold change /veh RGS16 (11746705_a_at) / RFU VCAN (11755009_s_at) / Fold change /veh VCAN (11755009_s_at) / RFU RHOB (11743442_s_at) / Fold change /veh RHOB (11743442_s_at) / RFU RGS16 (11720943_a_at) / Fold change /veh RGS16 (11720943_a_at) / RFU RGS16 (11720944_at) / Fold change /veh RGS16 (11720944_at) / RFU, VPS4B / Fold change vs veh, VPS4B / RFU, CREB1 / Fold change vs veh, CREB1 / RFU, DNAJC13 / Fold change vs veh, DNAJC13 / RFU, GNAQ / Fold change vs veh, GNAQ / RFU, CDK5R1 / Fold change vs veh, CDK5R1 / RFU, ZRANB3 / Fold change vs veh, ZRANB3 / RFU, CUL4A / Fold change vs veh, CUL4A / RFU, CCNY / Fold change vs veh, CCNY / RFU, UFL1 / Fold change vs veh, UFL1 / RFU, COG3 / Fold change vs veh, COG3 / RFU, DIAPH2 / Fold change vs veh, DIAPH2 / RFU, SKA2 / Fold change vs veh, SKA2 / RFU, AFF3 / Fold change vs veh, AFF3 / RFU, LMF1 / Fold change vs veh, LMF1 / RFU, IPO11 / Fold change vs veh, IPO11 / RFU, DFFB / Fold change vs veh, DFFB / RFU, FOXP1 / Fold change vs veh, FOXP1 / RFU, CARD8 / Fold change vs veh, CARD8 / RFU, STRN3 / Fold change vs veh, STRN3 / RFU, ADK / Fold change vs veh, ADK / RFU, RASSF2 / Fold change vs veh, RASSF2 / RFU, WIPF1 / Fold change vs veh, WIPF1 / RFU, LARP1B / Fold change vs veh, LARP1B / RFU, RASA1 / Fold change vs veh, RASA1 / RFU, RB1 / Fold change vs veh, RB1 / RFU, PPFIA1 / Fold change vs veh, PPFIA1 / RFU, MAT2A / Fold change vs veh, MAT2A / RFU, CCT5 / Fold change vs veh, CCT5 / RFU, WDR92 / Fold change vs veh, WDR92 / RFU, CUX1 / Fold change vs veh, CUX1 / RFU, TTC7A / Fold change vs veh, TTC7A / RFU, TMEM135 / Fold change vs veh, TMEM135 / RFU, DEPTOR / Fold change vs veh, DEPTOR / RFU, CPM / Fold change vs veh, CPM / RFU, DNAJB6 / Fold change vs veh, DNAJB6 / RFU, CACNA2D3 / Fold change vs veh, CACNA2D3 / RFU, DTX4 / Fold change vs veh, DTX4 / RFU, TFCP2 / Fold change vs veh, TFCP2 / RFU, GMCL1 /// GMCL1P1 / Fold change vs veh, GMCL1 /// GMCL1P1 / RFU, AEBP2 / Fold change vs veh, AEBP2 / RFU, SNHG1 /// SNORD22 /// SNORD25 /// SNORD26 /// SNORD27 /// SNORD28 /// SNORD29 /// SNORD31 / Fold change vs veh, SNHG1 /// SNORD22 /// SNORD25 /// SNORD26 /// SNORD27 /// SNORD28 /// SNORD29 /// SNORD31 / Fold change (Aza/veh), C12orf56 (ProbeSet 11735607_a_at) / Fold change (ACY-1035/veh), C12orf56 (ProbeSet 11735607_a_at) / Fold change (Aza/veh), FGFR1OP (ProbeSet 11751329_s_at) / Fold change (ACY-1035/veh), FGFR1OP (ProbeSet 11751329_s_at) / Fold change (Aza/veh), VPS36 (ProbeSet 11739960_a_at) / Fold change (ACY-1035/veh), VPS36 (ProbeSet 11739960_a_at) / RFU SYPL1 (11715823_x_at) / Fold change /veh SYPL1 (11715823_x_at) / RFU IGFBP7 (11715501_s_at) / Fold change /veh IGFBP7 (11715501_s_at) / RFU REEP3 (11722064_at) / Fold change /veh REEP3 (11722064_at) / RFU IGLL1 (11728026_x_at) / Fold change /veh IGLL1 (11728026_x_at): dose or concentration left out as unconfirmed
Details: ProbeSet 11721521_at; LIST B

For `Nc1ncn([C@@H]2O[C@H](CO)[C@@H](O)[C@H]2O)c(=O)n1` [azacitidine], the “RFU, ZDHHC17” value was 48.06 RFU.
